{"source": "patent US3985732A", "about": "“1,2,3,11A-Tetrahydro-10-methyl-5H-pyrrolo[2,1-c][1,4]ben zodiazepin-5,11(10H)-diones” (American Cyanamid Company, priority 1975, dated 1976)", "system": "clonic seizures caused by pentylenetetrazole in rats", "experiment": "Protection against clonic seizures caused by pentylenetetrazole in rats (oral)", "assay_type": "in vivo, rat", "conditions": "for effectiveness as anxiolytic agents versus closest prior art compound (respective dextrorotatory and racemic forms without 10-methyl): pentylenetetrazole test in rats, compared with Compounds 4 and 5", "description": "The anti-anxiety properties of the compounds of the present invention have been established in a test which indicates anxiolytic activity by a measure of protection from convulsions resulting from the administration of pentylenetetrazol. Graded dose levels of the dextro and racemic forms of the 1,2,3,11a-tetrahydro-10-methyl-5H-pyrrolo[2,1-c][1,4]benzodiazepin-5,11(10H)-diones are administered orally, in a 2% starch vehicle, to groups of at least 5 rats. At the estimated time of peak effect, the rats are treated intravenously with pentylenetetrazole at a dose of 21 to 23 mg/kg of body weight. This dose is estimated to cause clonic seizures in 99% of unprotected rats. The effective dose of the test compound for protection of 50% of the animals is calculated by the method of J. T. Litchfield and F. Wilcoxon, Journal of Pharmacology and Experimental Therapeutics, 96, 99 (1949). The results are given in the table which follows in comparison with Librium (chlordiazepoxide), Valium (diazepam) and the dextro and racemic forms of 1,2,3,11a-tetrahydro-5H-pyrrolo-[2,1-c] [1,4]benzodiazepin-5,11(10H)-dione (U.S. Pat. No. 3,732,212) all of which were tested in exactly the same manner. It has been reported [R. T. Hill and D. H. Tedeschi, \"Animal Testing and Screening Procedures in Evaluating Psychotropic Drugs\" in An Introduction to Psychopharmacology, Eds. R. R. Rech and K. E. Moore, Raven Press, New York, pp. 237-288 (1971)] that there is a high degree of correlation between antagonism of pentylenetetrazole seizures in rats and antianxiety effects in higher warm-blooded animals."}
{"smiles": "CN1C(=O)[C@@H]2CCCN2C(=O)c2cc(F)ccc21", "note": "[Dextrorotatory 7-Fluoro-1,2,3,11a-tetrahydro-10-methyl-5H-pyrrolo[2,1-c][1,4]benzodiazepin-5,11(10H)-dione]", "values": [{"measurement": "ED50", "setting": "Rattus norvegicus, 2% starch vehicle, at least 5 rats per group, pentylenetetrazole 21 to 23 mg/kg intravenously at estimated time of peak effect, Litchfield and Wilcoxon, read-out: Medium Effective Oral Dose ED50, protection against clonic seizures caused by pentylenetetrazole", "result": 4, "unit": "mg/kg"}, {"measurement": "effectiveness as anxiolytic agents versus closest prior art compound (respective dextrorotatory and racemic forms without 10-methyl)", "result": "far more effective"}]}
{"smiles": "CN1C(=O)[C@@H]2CCCN2C(=O)c2ccccc21", "note": "[Compound 2, Dextrorotatory 1,2,3,11a-Tetrahydro-10-methyl-5H-pyrrolo[2,1-c][1,4]benzodiazepin-5,11(10H)-dione]", "values": [{"measurement": "effectiveness as anxiolytic agents versus closest prior art compound (respective dextrorotatory and racemic forms without 10-methyl)", "result": "far more effective"}]}
{"smiles": "CN1C(=O)C2CCCN2C(=O)c2ccccc21", "note": "(racemic) [Compound 3, Racemic (DL) 1,2,3,11a-Tetrahydro-10-methyl-5H-pyrrolo[2,1-c][1,4]benzodiazepin-5,11(10H)-dione]", "values": [{"measurement": "effectiveness as anxiolytic agents versus closest prior art compound (respective dextrorotatory and racemic forms without 10-methyl)", "result": "far more effective"}]}
